Source: patent US8754115B2, “Fungicidal pyrazoles” (E I du Pont de Nemours and Company, priority 2010, dated 2014)
Marks after values point to notes of the source that are not given here.

Assays:
Assay type in all cases: in vivo
Botrytis cinerea = experiment: Test A: preventive spray on tomato seedlings, visual disease rating (tomato Botrytis)
How it was run: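 Tomato seedlings sprayed to run-off with 200 ppm suspension (800 g/ha; asterisk marks 40 ppm), inoculated next day with Botrytis cinerea spores, held 48 h saturated at 20 °C then 3 days at 24 °C. Visual rating: 100 = full disease control, 0 = none, relative to controls.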

Alternaria solani = experiment: Test B: preventive spray on tomato seedlings, visual disease rating (tomato early blight)
How it was run: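 Compounds were suspended at 200 ppm (asterisked values at 40 ppm) in acetone/water with surfactant and sprayed to run-off on tomato seedlings, 200 ppm being equivalent to 800 g/ha. A. solani spores were inoculated the next day, with 48 h at 27 °C in saturated air, then 5 days at 20 °C. Disease control was rated visually, 0–100% relative to controls.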

Septoria nodorum = experiment: Test C: preventive spray on wheat seedlings, visual disease rating (Septoria glume blotch)
How it was run: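 Wheat seedlings were sprayed to run-off with 200 ppm suspension (40 ppm where marked; 200 ppm ≈ 800 g/ha) in acetone/water with 250 ppm Trem 014, then inoculated next day with Septoria nodorum spores. Incubation was 48 h saturated at 24 °C, then 6 days at 20 °C; visual rating 0–100% disease control versus controls.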

Septoria tritici = experiment: Test D: preventive spray on wheat seedlings, visual disease rating (wheat leaf blotch)
How it was run: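 Wheat seedlings were sprayed to run-off with a 200 ppm suspension (equal to 800 g/ha), or 40 ppm where marked with an asterisk, and inoculated with Septoria tritici spores the next day. Plants were kept at 24 °C in saturated air for 48 h, then at 20 °C for 19 days. Disease control was rated visually from 0 to 100 relative to controls.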

[1] = test system: Puccinia recondite f. sp. tritici; experiment: Test E1: curative spray on wheat seedlings after inoculation, visual disease rating (wheat leaf rust)
How it was run: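 Seedlings inoculated with rust spores, held 24 h in saturated atmosphere at 20 °C, then 2 days at 20 °C before curative spray to run-off with test suspension (200 ppm ≈ 800 g/ha, or 40 ppm where marked) in acetone/water with surfactant. Visual disease control rating (0–100) after 6 further days at 20 °C.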

[2] = test system: Puccinia recondite f. sp. tritici; experiment: Test E2: preventive spray on wheat seedlings, visual disease rating (wheat leaf rust)
How it was run: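 Test suspension (acetone 3% of volume, acetone/water 50/50, 250 ppm Trem 014), 200 ppm unless starred (40 ppm), sprayed to run-off on wheat seedlings; inoculated next day with P. recondita spores. 24 h saturated atmosphere at 20 °C, then 7 days at 20 °C; visual rating, 100 = full control vs untreated.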

[3] = test system: Blumeria graminis f. sp. tritici; experiment: Test F: preventive spray on wheat seedlings, visual disease rating (wheat powdery mildew)
How it was run: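 Compound in acetone/water (50/50) with 250 ppm surfactant, sprayed to run-off on wheat seedlings at 200 ppm (≈800 g/ha) or, where marked, 40 ppm. Seedlings dusted with spores the next day, kept 8 days at 20° C., then rated visually as % disease control versus untreated plants.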

[4] = no asterisk: standard test suspension, not 40 ppm, 100 = 100% disease control, 0 = none
[5] = no asterisk: standard test suspension, not 40 ppm
[6] = asterisk: 40 ppm test suspension

Compound | Test A rating (% disease control) (Botrytis cinerea; [4]) | Test B rating (% disease control) (Alternaria solani; [5]) | Test C rating (% disease control) (Septoria nodorum; [5]) | Test D rating (% disease control) (Septoria tritici; [5]) | Test E1 rating (% disease control) [1, 5] | Test E2 rating (% disease control) [2, 5] | Test F rating (% disease control) [3, 5] | other results
Cc1nn(C)c(-c2ccc(C#N)cc2Cl)c1Oc1ccc(F)cc1Cl [compound 36] | 96% | 0% | 0% | 100% | 18% | 100% | 100% | –
Cc1nn(C)c(-c2ccccc2Br)c1C(=O)c1ccc(F)cc1Cl [compound 78] | 0% | 31% | 40% | 0% | 0% | 79% | 99% | –
(2,4-difluorophenyl)-[5-(2,4-difluorophenyl)-1,3-dimethyl-1H-pyrazol-4-yl]methanone [Compound 32] | 0% | 96% | 0% | 100% | 0% | 9% | 0% | –
Cc1nn(C)c(-c2ccc(F)cc2Cl)c1Nc1ccc(Cl)cc1Cl [compound 44] | – | – | – | – | – | – | – | Test A rating (% disease control) (Botrytis cinerea; [6]): 99* %; Test B rating (% disease control) (Alternaria solani; [6]): 0* %; Test C rating (% disease control) (Septoria nodorum; [6]): 0* %; Test D rating (% disease control) (Septoria tritici; [6]): 99* %; Test E1 rating (% disease control) [1, 6]: 0* %; Test E2 rating (% disease control) [2, 6]: 99* %; Test F rating (% disease control) [3, 6]: 100* %
4-[[5-(2-chloro-4-fluorophenyl)-1,3-dimethyl-1H-pyrazol-4-yl]amino]-3,5-difluorobenzonitrile [Compound 40] | 100% | 0% | 0% | 0% | 38% | 68% | 91% | –
Cc1nn(C)c(-c2c(F)cccc2F)c1C(O)c1c(F)cc(F)cc1F (stereo not drawn) [compound 15] | 100% | 100% | 86% | 100% | 68% | 100% | 100% | –
Cn1nc(C#N)c(C(O)c2ccc(F)cc2Cl)c1-c1c(F)cccc1F (stereo not drawn) [Compound 53, 4-[(2-chloro-4-fluorophenyl)hydroxymethyl]-5-(2,6-difluorophenyl)-1-methyl-1H-pyrazole-3-carbonitrile] | – | – | – | – | – | – | – | pest or weed control at 40 ppm (Botrytis cinerea; Botrytis cinerea, 120 h, asterisk: 40 ppm test suspension): 93%; pest or weed control at 40 ppm (Alternaria solani; Alternaria solani, 168 h, asterisk: 40 ppm test suspension): 99%; pest or weed control at 40 ppm (Septoria nodorum; Parastagonospora nodorum, 192 h, asterisk: 40 ppm test suspension): 0%; pest or weed control at 40 ppm (Septoria tritici; Zymoseptoria tritici, 504 h, asterisk: 40 ppm test suspension): 100%; pest or weed control at 40 ppm ([1]; 144 h, asterisk: 40 ppm test suspension): 0%; pest or weed control at 40 ppm ([2]; 192 h, asterisk: 40 ppm test suspension): 93%; pest or weed control at 40 ppm ([3]; Blumeria graminis, 192 h, asterisk: 40 ppm test suspension): 43%
4-[(4-chlorophenyl)thio]-5-(2,6-difluorophenyl)-1,3-dimethyl-1H-pyrazole [Compound 56] | 100% | 59% | 0% | 100% | 0% | 99% | 100% | –
Cc1nn(C)c(-c2ccc(F)cc2Cl)c1Nc1ccc(Cl)cc1F [Compound 45] | 100% | 0% | 0% | 100% | 77% | 97% | 99% | Test A rating (% disease control) (Botrytis cinerea; [6]): 98* %; Test B rating (% disease control) (Alternaria solani; [6]): 33* %; Test C rating (% disease control) (Septoria nodorum; [6]): 0* %; Test D rating (% disease control) (Septoria tritici; [6]): 100* %; Test E1 rating (% disease control) [1, 6]: 0* %; Test E2 rating (% disease control) [2, 6]: 95* %; Test F rating (% disease control) [3, 6]: 100* %
Cc1nn(C)c(-c2ccc(F)cc2Cl)c1C(O)c1ccc(F)cc1Cl (stereo not drawn) [compound 18] | 100% | 83% | 0% | 100% | 100% | 100% | 100% | –
Cc1nn(C)c(-c2ccccc2Br)c1C(O)c1ccc(F)cc1Cl (single isomer, unassigned) [compound 80] | 99% | 97% | 69% | 100% | 99% | 99% | 99% | –
Cc1nn(C)c(-c2c(F)cc(F)cc2F)c1C(O)c1ccc(F)cc1Cl (stereo not drawn) [compound 61] | 100% | 100% | 99% | 100% | 99% | 100% | 100% | –
Cc1nn(C)c(-c2c(F)cccc2F)c1C(O)c1ccc(F)cc1Cl (single isomer, unassigned) [compound 86] | 99% | – | – | 100% | – | 100% | 100% | Test B rating (% disease control) (Alternaria solani; [6]): 100* %; Test C rating (% disease control) (Septoria nodorum; [6]): 99* %; Test E1 rating (% disease control) [1, 6]: 99* %
COc1cc(F)c(C(O)c2c(C)nn(C)c2-c2c(F)cccc2F)c(F)c1 (stereo not drawn) [compound 16] | 100% | 99% | 0% | 100% | 54% | 100% | 93% | –
